Experimental data from ChEMBL document CHEMBL1777694, “Quinazolinedione sulfonamides: a novel class of competitive AMPA receptor antagonists with oral activity” (Bioorg Med Chem Lett, 2011).
Active and inactive are the calls of the source. No cut-off for these calls is given here.

Legend:
[1] = Displacement of [3H]CNQX from AMPA receptor in rat brain homogenate; assay type: tissue-based
Glutamate NMDA receptor = assay: Displacement of [3H]MDL105519 from NMDA receptor glycine site in rat brain homogenate; assay type: tissue-based
[2] = biological target: T1, Glutamate NMDA receptor (Rattus norvegicus) (UniProt P35439+Q00959+Q00960+Q00961+Q62645+Q8VHN2+Q9R1M7); assay: Inhibition of NMDA receptor glycine site in rat brain homogenate at 10 uM; assay type: tissue-based
Mus musculus [3] = assay: Anticonvulsant activity in po dosed OF1 mouse assessed as inhibition of electroshock-induced seizures administered 1 hr before electroshock challenge; assay type: functional
[4] = biological target: Glutamate receptor 2 (Homo sapiens) (UniProt P42262); assay: Binding affinity to human GluA2 by X-ray crystallography
Mus musculus [5] = assay: Anticonvulsant activity in OF1 mouse assessed as inhibition of electroshock-induced seizures at 30 mg/kg, ip administered 1 hr before electroshock challenge; assay type: functional; conditions: route intraperitoneal
Mus musculus [6] = assay: Anticonvulsant activity in po dosed DBA2 mouse assessed as inhibition of sound-induced seizures; assay type: functional, organism-based
[7] = biological target: T1, Glutamate NMDA receptor (Rattus norvegicus); assay: Inhibition of NMDA receptor glycine site in rat brain homogenate at 100 uM; assay type: tissue-based
Rattus norvegicus [8] = organism: Rattus norvegicus; assay: Inhibition of AMPA receptor in rat brain homogenate at 10 uM; assay type: tissue-based
Rattus norvegicus [9] = organism: Rattus norvegicus; assay: Inhibition of AMPA receptor in rat brain homogenate at 100 uM; assay type: tissue-based
Mus musculus [10] = assay: Anticonvulsant activity in OF1 mouse assessed as inhibition of electroshock-induced seizures at 30 mg/kg, po administered 1 hr before electroshock challenge; assay type: functional
[11] = Dissociation constant, pKa of the compound; assay type: physicochemical

Sequence of Glutamate receptor 2 (Homo sapiens) (P42262 whole entry): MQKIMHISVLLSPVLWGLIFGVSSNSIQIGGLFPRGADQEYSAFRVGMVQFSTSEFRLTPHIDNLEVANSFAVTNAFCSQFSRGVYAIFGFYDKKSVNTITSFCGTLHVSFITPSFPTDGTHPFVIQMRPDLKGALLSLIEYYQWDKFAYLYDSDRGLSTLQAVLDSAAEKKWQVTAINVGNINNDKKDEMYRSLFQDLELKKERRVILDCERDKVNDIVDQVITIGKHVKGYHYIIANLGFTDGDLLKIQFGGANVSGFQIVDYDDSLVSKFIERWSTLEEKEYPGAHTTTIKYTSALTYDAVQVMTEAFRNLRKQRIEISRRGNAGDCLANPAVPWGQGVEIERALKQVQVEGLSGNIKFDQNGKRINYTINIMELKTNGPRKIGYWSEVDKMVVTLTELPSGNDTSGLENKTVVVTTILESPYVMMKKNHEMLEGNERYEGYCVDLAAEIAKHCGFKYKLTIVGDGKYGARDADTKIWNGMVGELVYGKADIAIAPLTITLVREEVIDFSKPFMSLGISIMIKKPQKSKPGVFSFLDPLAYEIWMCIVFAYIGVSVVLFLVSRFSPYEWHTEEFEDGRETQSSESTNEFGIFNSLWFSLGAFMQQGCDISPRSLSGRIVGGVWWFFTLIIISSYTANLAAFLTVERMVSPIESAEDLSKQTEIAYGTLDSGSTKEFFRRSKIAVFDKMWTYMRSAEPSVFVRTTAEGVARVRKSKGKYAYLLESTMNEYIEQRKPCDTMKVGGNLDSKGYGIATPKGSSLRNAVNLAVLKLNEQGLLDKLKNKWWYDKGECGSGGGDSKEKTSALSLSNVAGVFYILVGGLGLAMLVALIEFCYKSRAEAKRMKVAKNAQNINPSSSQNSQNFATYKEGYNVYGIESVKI

Question: For C=Cc1ccc2c(=O)n(NS(C)(=O)=O)c(=O)[nH]c2c1, which IC50 [1] is on record?
Answer: Its IC50 is 1900 nM.

Question: And the IC50 (Glutamate NMDA receptor)?
Answer: The IC50 was over 10 µM.

Question: For CS(=O)(=O)Nn1c(=O)[nH]c2cc(C(F)(F)F)ccc2c1=O, which inhibition [2] is on record?
Answer: The inhibition was 13%.

Question: What about the ED50 (Mus musculus [3]) of the same compound?
Answer: The ED50 was 54 mg/kg.

Question: What about the IC50 [1] of the same compound?
Answer: Its IC50 is 920 nM.

Question: What about the IC50 (Glutamate NMDA receptor) of the same compound?
Answer: The IC50 was 17.8 µM.

Question: With CS(=O)(=O)Nn1c(=O)[nH]c2cc([N+](=O)[O-])c(-n3ccnc3)cc2c1=O as the compound, how does the inhibition [2] read?
Answer: Its inhibition is 24%.

Question: And the inhibition (Mus musculus [3])?
Answer: Its inhibition is “inactive”.

Question: And the Activity [4]?
Answer: Its Activity is “Active”.

Question: What about the IC50 [1] of the same compound?
Answer: The IC50 was 82 nM.

Question: What about the inhibition in vivo at 30 mg/kg (Mus musculus [5]) of the same compound?
Answer: Its inhibition in vivo at 30 mg/kg is 40%.

Question: What about the inhibition (Mus musculus [6]) of the same compound?
Answer: The inhibition was “inactive”.

Question: Which inhibition [7] does the source give for CS(=O)(=O)Nn1c(=O)[nH]c2c(Cl)cccc2c1=O here?
Answer: The inhibition was 37%.

Question: What about the IC50 [1] of the same compound?
Answer: The IC50 was over 100000 nM.

Question: Which IC50 [1] does the source give for O=c1[nH]c2cc(Cl)ccc2c(=O)n1NS(=O)(=O)Cc1ccccc1 here?
Answer: Its IC50 is 2900 nM.

Question: What about the IC50 (Glutamate NMDA receptor) of the same compound?
Answer: Its IC50 is 0.21 µM.

Question: With CS(=O)(=O)Nn1c(=O)[nH]c2cc(C3CCCC3)ccc2c1=O as the compound, how does the inhibition (Rattus norvegicus [8]) read?
Answer: Its inhibition is 25%.

Question: For CCc1ccc2c(=O)n(NS(C)(=O)=O)c(=O)[nH]c2c1, which ED50 (Mus musculus [3]) is on record?
Answer: The ED50 was 16 mg/kg.

Question: What about the IC50 [1] of the same compound?
Answer: Its IC50 is 3000 nM.

Question: With CC(C)(C)c1ccc2c(=O)n(NS(C)(=O)=O)c(=O)[nH]c2c1 as the compound, how does the ED50 (Mus musculus [3]) read?
Answer: The ED50 was 29.5 mg/kg.

Question: What about the IC50 [1] of the same compound?
Answer: The IC50 was 4900 nM.

Question: What about the IC50 (Glutamate NMDA receptor) of the same compound?
Answer: Its IC50 is over 100 µM.

Question: With Cn1cnc(S(=O)(=O)Nn2c(=O)[nH]c3cc(Cl)ccc3c2=O)c1 as the compound, how does the IC50 [1] read?
Answer: Its IC50 is 1600 nM.

Question: What does the source list for CCS(=O)(=O)Nn1c(=O)[nH]c2cc(Cl)ccc2c1=O?
Answer: IC50 [1]: 2300 nM; IC50 (Glutamate NMDA receptor): 35 µM

Question: What does the source list for CS(=O)(=O)Nn1c(=O)[nH]c2cccc(Cl)c2c1=O?
Answer: inhibition [7]: 34%; IC50 [1]: 29000 nM

Question: What does the source list for O=c1[nH]c2cc(Cl)ccc2c(=O)n1NS(=O)(=O)c1ccccc1?
Answer: IC50 [1]: 4900 nM; IC50 (Glutamate NMDA receptor): 9.3 µM

Question: Which inhibition (Rattus norvegicus [9]) does the source give for CN(n1c(=O)[nH]c2cc(Cl)ccc2c1=O)S(C)(=O)=O here?
Answer: The inhibition was 12%.

Question: What about the inhibition [7] of the same compound?
Answer: The inhibition was 18%.

Question: For COc1ccc2c(=O)n(NS(C)(=O)=O)c(=O)[nH]c2c1, which inhibition [2] is on record?
Answer: Its inhibition is 22%.

Question: And the inhibition in vivo at 30 mg/kg (Mus musculus [10])?
Answer: The inhibition in vivo at 30 mg/kg was 60%.

Question: And the IC50 [1]?
Answer: Its IC50 is 3700 nM.

Question: With CS(=O)(=O)Nn1c(=O)[nH]c2cc(C#N)ccc2c1=O as the compound, how does the inhibition [2] read?
Answer: Its inhibition is 28%.

Question: And the IC50 [1]?
Answer: The IC50 was 750 nM.

Question: What does the source list for CS(=O)(=O)Nn1c(=O)[nH]c2cc(CCc3ccccc3)ccc2c1=O?
Answer: inhibition [2]: 26%; IC50 [1]: 1100 nM

Question: Which IC50 [1] does the source give for CS(=O)(=O)Nn1c(=O)[nH]c2cc(Cl)c(-n3ccnc3)cc2c1=O here?
Answer: The IC50 was 520 nM.

Question: What about the IC50 (Glutamate NMDA receptor) of the same compound?
Answer: Its IC50 is 17.2 µM.

Question: For CS(=O)(=O)Nn1c(=O)[nH]c2cc(Br)ccc2c1=O, which inhibition [2] is on record?
Answer: The inhibition was 49%.

Question: And the IC50 [1]?
Answer: The IC50 was 2200 nM.

Question: What does the source list for CS(=O)(=O)Nn1c(=O)[nH]c2cc(-c3ccccc3)ccc2c1=O?
Answer: inhibition [7]: 36%; inhibition (Rattus norvegicus [8]): 36%

Question: What does the source list for Cc1ccc2c(=O)n(NS(C)(=O)=O)c(=O)[nH]c2c1?
Answer: inhibition [2]: 13%; ED50 (Mus musculus [3]): 9 mg/kg; IC50 [1]: 9700 nM

Question: Which results are given for CS(=O)(=O)Nn1c(=O)[nH]c2cc(S(C)(=O)=O)ccc2c1=O?
Answer: inhibition (Rattus norvegicus [8]): 42%; IC50 (Glutamate NMDA receptor): > 100 µM

Question: For Cn1c(=O)n(NS(C)(=O)=O)c(=O)c2ccc(Cl)cc21, which inhibition (Rattus norvegicus [9]) is on record?
Answer: The inhibition was 45%.

Question: And the inhibition [7]?
Answer: Its inhibition is 36%.

Question: With CS(=O)(=O)Nn1c(=O)[nH]c2ccccc2c1=O as the compound, how does the inhibition [7] read?
Answer: Its inhibition is 48%.

Question: What about the IC50 [1] of the same compound?
Answer: Its IC50 is 57000 nM.

Question: Which inhibition [2] does the source give for CS(=O)(=O)Nn1c(=O)[nH]c2cc(F)ccc2c1=O here?
Answer: Its inhibition is 17%.

Question: What about the IC50 [1] of the same compound?
Answer: Its IC50 is 8200 nM.

Question: Which inhibition [2] does the source give for CS(=O)(=O)Nn1c(=O)[nH]c2cc([N+](=O)[O-])ccc2c1=O here?
Answer: Its inhibition is 16%.

Question: And the IC50 [1]?
Answer: The IC50 was 1200 nM.

Question: Which inhibition [7] does the source give for CS(=O)(=O)Nn1c(=O)[nH]c2ccc(Cl)cc2c1=O here?
Answer: Its inhibition is 50%.

Question: What about the IC50 [1] of the same compound?
Answer: The IC50 was 34000 nM.

Question: With CS(=O)(=O)Nn1c(=O)[nH]c2cc(Cl)ccc2c1=O as the compound, how does the inhibition [2] read?
Answer: Its inhibition is 32%.

Question: And the ED50 (Mus musculus [3])?
Answer: The ED50 was 23 mg/kg.

Question: What about the IC50 [1] of the same compound?
Answer: The IC50 was 2400 nM.

Question: And the pKa [11]?
Answer: The pKa was 6.9.

Question: With CS(=O)(=O)Nn1c(=O)[nH]c2cc(C(=O)O)ccc2c1=O as the compound, how does the inhibition (Rattus norvegicus [8]) read?
Answer: Its inhibition is 0%.
